Experimental data: patent US20250034136A1 (Nimbus Wadjet, Inc., priority 2023, published 2025)
pEC50, pIC50: −log10 of the molar value.

Legend:
[1] = test system: p21 induction in HCT116 cells; assay: p21 induction in HCT116 cells; assay type: cell-based; conditions: Homo sapiens, HCT-116, 24 h, HCT116 cells, 24 h compound incubation; read-out: P21_EC50
Outline: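 EC50 from non-linear curve fit of p21 immunofluorescence (800 nm), with GAPDH (700 nm) read alongside. DMSO and a reference WRN inhibitor served as low and high controls. Cells (2,000/well) got 11 compound concentrations in duplicate for 24 h at 37 °C.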

[2] = molecular target: WRN (BV08), human Werner helicase (Uniprot Q14191, amino acids 517-1235 with L1074F point mutation) (Homo sapiens (Human), UniProt Q14191, L1074F); assay: WRN (BV08) ADP-Glo assay; assay type: biochemical; conditions: class symbols A-E, read-out: ADP-Glo_hWRN_IC50
WRN (BV08), human Werner helicase (Uniprot Q14191, amino acids 517-1235 with L1074F point mutation), sequence (Q14191 other isoform, or with tags, fused parts or gaps L1074F (already in the parent)): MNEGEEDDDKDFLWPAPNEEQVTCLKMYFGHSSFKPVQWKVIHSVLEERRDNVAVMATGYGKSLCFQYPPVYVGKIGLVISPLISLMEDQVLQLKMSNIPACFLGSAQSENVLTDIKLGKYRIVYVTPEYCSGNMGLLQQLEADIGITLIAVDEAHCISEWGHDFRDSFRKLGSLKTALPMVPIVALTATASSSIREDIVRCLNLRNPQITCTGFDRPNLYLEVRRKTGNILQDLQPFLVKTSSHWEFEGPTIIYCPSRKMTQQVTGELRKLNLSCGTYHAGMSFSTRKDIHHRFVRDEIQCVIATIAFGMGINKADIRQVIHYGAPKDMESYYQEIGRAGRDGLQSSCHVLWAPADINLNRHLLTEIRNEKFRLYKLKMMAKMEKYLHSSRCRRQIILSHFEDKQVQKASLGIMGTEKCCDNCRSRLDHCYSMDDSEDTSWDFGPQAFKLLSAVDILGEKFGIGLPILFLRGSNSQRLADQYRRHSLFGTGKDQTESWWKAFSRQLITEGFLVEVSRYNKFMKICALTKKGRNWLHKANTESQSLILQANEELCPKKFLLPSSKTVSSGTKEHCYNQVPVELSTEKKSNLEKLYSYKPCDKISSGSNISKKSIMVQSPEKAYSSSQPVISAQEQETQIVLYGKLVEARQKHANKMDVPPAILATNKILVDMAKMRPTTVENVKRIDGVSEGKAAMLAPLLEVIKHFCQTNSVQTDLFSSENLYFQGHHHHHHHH

| Compound | pEC50 [1] | pIC50 [2] |
| --- | --- | --- |
| CCc1c(N2CCN(C(=O)c3ncnc(C)c3O)CC2)c(=O)c2nc(N3CC(C)(O)C3)cnc2n1CC(=O)Nc1ccc(C(F)(F)F)cc1Cl [I-44, N-(2-chloro-4-(trifluoromethyl)phenyl)-2-(6-ethyl-2-(3-hydroxy-3-methylazetidin-1-yl)-7-(4-(5-hydroxy-6-methylpyrimidine-4-carbonyl)piperazin-1-yl)-8-oxopyrido[2,3-b]pyrazin-5(8H)-yl)acetamide] | < 5.30 | 7.30 to 8.30 |
| CCc1c(N2CCN(C(=O)c3ncnc(C)c3O)CC2)c(=O)c2nc(N3CC(O)C3)cnc2n1CC(=O)Nc1ccc(C(F)(F)F)cc1Cl [I-45, N-(2-chloro-4-(trifluoromethyl)phenyl)-2-(6-ethyl-7-(4-(5-hydroxy-6-methylpyrimidine-4-carbonyl)piperazin-1-yl)-2-(3-hydroxyazetidin-1-yl)-8-oxopyrido[2,3-b]pyrazin-5(8H)-yl)acetamide] | < 5.30 | 7.30 to 8.30 |
| CCc1c(N2CCN(C(=O)c3ncnc(C)c3O)CC2)c(=O)c2nccnc2n1CC(=O)Nc1ccc(C(F)(F)F)cc1Cl [I-46, N-(2-chloro-4-(trifluoromethyl)phenyl)-2-(6-ethyl-7-(4-(5-hydroxy-6-methylpyrimidine-4-carbonyl)piperazin-1-yl)-8-oxopyrido[2,3-b]pyrazin-5(8H)-yl)acetamide] | < 5.30 | 7.30 to 8.30 |
| CCc1c(N2CCN(C(=O)c3ncnc(C)c3O)CC2)c(=O)c2nc(N3CCC(C)(O)C3)cnc2n1CC(=O)Nc1ccc(C(F)(F)F)cc1Cl (centres unmarked) [I-47, N-(2-chloro-4-(trifluoromethyl)phenyl)-2-(6-ethyl-2-(3-hydroxy-3-methylpyrrolidin-1-yl)-7-(4-(5-hydroxy-6-methylpyrimidine-4-carbonyl)piperazin-1-yl)-8-oxopyrido[2,3-b]pyrazin-5(8H)-yl)acetamide] | < 5.30 | 7.30 to 8.30 |
| CCc1c(N2CCN(C(=O)c3ncnc(C)c3O)CC2)c(=O)c2nc(CN3CCOCC3)cnc2n1CC(=O)Nc1ccc(C(F)(F)F)cc1Cl [I-49, N-(2-chloro-4-(trifluoromethyl)phenyl)-2-(6-ethyl-7-(4-(5-hydroxy-6-methylpyrimidine-4-carbonyl)piperazin-1-yl)-2-(morpholinomethyl)-8-oxopyrido[2,3-b]pyrazin-5(8H)-yl)acetamide] | < 5.30 | 7.00 to 7.30 |
| CCc1c(N2CCN(C(=O)c3c(O)ccnc3OC)CC2)c(=O)c2nc(N(C)C)cnc2n1CC(=O)Nc1ccc(C(F)(F)F)cc1Cl [I-51, N-(2-chloro-4-(trifluoromethyl)phenyl)-2-(2-(dimethylamino)-6-ethyl-7-(4-(4-hydroxy-2-methoxynicotinoyl)piperazin-1-yl)-8-oxopyrido[2,3-b]pyrazin-5(8H)-yl)acetamide] | > 6.30 | 7.30 to 8.30 |
| CCc1c(N2CCN(C(=O)c3ncnc(C)c3O)CC2)c(=O)c2nc(N3CCOCC3)cnc2n1CC(=O)Nc1ccc(C(F)(F)F)cc1Cl [I-52, N-(2-chloro-4-(trifluoromethyl)phenyl)-2-(6-ethyl-7-(4-(5-hydroxy-6-methylpyrimidine-4-carbonyl)piperazin-1-yl)-2-morpholino-8-oxopyrido[2,3-b]pyrazin-5(8H)-yl)acetamide] | < 5.30 | 7.30 to 8.30 |
| CCc1c(N2CCN(C(=O)c3ncnc(C)c3O)CC2)c(=O)c2nc(N3CCC3)cnc2n1CC(=O)Nc1ccc(C(F)(F)F)cc1Cl [I-53, 2-(2-(azetidin-1-yl)-6-ethyl-7-(4-(5-hydroxy-6-methylpyrimidine-4-carbonyl)piperazin-1-yl)-8-oxopyrido[2,3-b]pyrazin-5(8H)-yl)-N-(2-chloro-4-(trifluoromethyl)phenyl)acetamide] | 5.70 to 6.30 | 7.30 to 8.30 |
| CCc1c(N2CCN(C(=O)c3ncnc(C)c3O)CC2)c(=O)c2nc(N3CC[C@@H](O)C3)cnc2n1CC(=O)Nc1ccc(C(F)(F)F)cc1Cl [I-56, (R)-N-(2-chloro-4-(trifluoromethyl)phenyl)-2-(6-ethyl-7-(4-(5-hydroxy-6-methylpyrimidine-4-carbonyl)piperazin-1-yl)-2-(3-hydroxypyrrolidin-1-yl)-8-oxopyrido[2,3-b]pyrazin-5(8H)-yl)acetamide] | < 5.30 | 7.30 to 8.30 |
| CCc1c(N2CCN(C(=O)c3ncnc(C)c3O)[C@H](C)C2)c(=O)c2nc(N(C)C)cnc2n1CC(=O)Nc1ccc(C(F)(F)F)cc1Cl [I-57, (R)-N-(2-chloro-4-(trifluoromethyl)phenyl)-2-(2-(dimethylamino)-6-ethyl-7-(4-(5-hydroxy-6-methylpyrimidine-4-carbonyl)-3-methylpiperazin-1-yl)-8-oxopyrido[2,3-b]pyrazin-5(8H)-yl)acetamide] | 5.70 to 6.30 | 7.30 to 8.30 |

Next, values leading:

| pEC50 [1] | pIC50 [2] | Compound |
| --- | --- | --- |
| < 5.30 | 6.30 to 7.00 | CCc1c(N2CCN(C(=O)c3ncnc(C)c3O)CC2)c(=O)c2ncc(Cl)nc2n1CC(=O)Nc1ccc(C(F)(F)F)cc1Cl [I-43, N-(2-chloro-4-(trifluoromethyl)phenyl)-2-(3-chloro-6-ethyl-7-(4-(5-hydroxy-6-methylpyrimidine-4-carbonyl)piperazin-1-yl)-8-oxopyrido[2,3-b]pyrazin-5(8H)-yl)acetamide] |
| < 5.30 | 6.30 to 7.00 | CCc1c(N2CCN(C(=O)c3ncnc(C)c3O)CC2)c(=O)c2nc(C(=O)N(C)C)cnc2n1CC(=O)Nc1ccc(C(F)(F)F)cc1Cl [I-48, 5-(2-((2-chloro-4-(trifluoromethyl)phenyl)amino)-2-oxoethyl)-6-ethyl-7-(4-(5-hydroxy-6-methylpyrimidine-4-carbonyl)piperazin-1-yl)-N,N-dimethyl-8-oxo-5,8-dihydropyrido[2,3-b]pyrazine-2-carboxamide] |
| < 5.30 | 7.00 to 7.30 | CCc1c(N2CCN(C(=O)c3ncnc(C)c3O)CC2)c(=O)c2nc(C(N)=O)cnc2n1CC(=O)Nc1ccc(C(F)(F)F)cc1Cl [I-50, 5-(2-((2-chloro-4-(trifluoromethyl)phenyl)amino)-2-oxoethyl)-6-ethyl-7-(4-(5-hydroxy-6-methylpyrimidine-4-carbonyl)piperazin-1-yl)-8-oxo-5,8-dihydropyrido[2,3-b]pyrazine-2-carboxamide] |
| < 5.30 | 6.30 to 7.00 | CCc1c(N2CCN(C(=O)c3ncnc(C)c3O)CC2)c(=O)c2nc(C(=O)NC)cnc2n1CC(=O)Nc1ccc(C(F)(F)F)cc1Cl [I-54, 5-(2-((2-chloro-4-(trifluoromethyl)phenyl)amino)-2-oxoethyl)-6-ethyl-7-(4-(5-hydroxy-6-methylpyrimidine-4-carbonyl)piperazin-1-yl)-N-methyl-8-oxo-5,8-dihydropyrido[2,3-b]pyrazine-2-carboxamide] |
| 5.70 to 6.30 | 7.30 to 8.30 | CCc1c(N2CCN(C(=O)c3ncnc(C)c3O)CC2)c(=O)c2nc(/C=C/COC)cnc2n1CC(=O)Nc1ccc(C(F)(F)F)cc1Cl [I-55, (E)-N-(2-chloro-4-(trifluoromethyl)phenyl)-2-(6-ethyl-7-(4-(5-hydroxy-6-methylpyrimidine-4-carbonyl)piperazin-1-yl)-2-(3-methoxyprop-1-en-1-yl)-8-oxopyrido[2,3-b]pyrazin-5(8H)-yl)acetamide] |
| > 6.30 | 7.30 to 8.30 | CCc1c(N2CCN(C(=O)c3ncnc(C)c3O)CC2)c(=O)c2nc(N(C)C3CC3)cnc2n1CC(=O)Nc1ccc(C(F)(F)F)cc1Cl [I-58, N-(2-chloro-4-(trifluoromethyl)phenyl)-2-(2-(cyclopropyl(methyl)amino)-6-ethyl-7-(4-(5-hydroxy-6-methylpyrimidine-4-carbonyl)piperazin-1-yl)-8-oxopyrido[2,3-b]pyrazin-5(8H)-yl)acetamide] |
